# Target: human autotaxin (Homo sapiens (Human), UniProt Q13822)
# Assay: Human Autotaxin Assay
# Type: biochemical
# Conditions: not given
# Method: ATX activity is assayed in concentrated conditioned media from Hep3B human hepatocellular carcinoma cells by measuring the amount of choline released from the substrate, lysophosphatidylcholine (LPC) as it is cleaved to LPA. Conditioned media is collected from confluent Hep3B cells and concentrated 20-fold using Centriprep-30 filter devices (Millipore). […] 100 μl of a color mix containing 4.5 mM 4-aminoantipyrine, 2.7 mM N-ethyl-N-(2-hydroxy-3-sulfopropyl)-m-toluidine, 21 units/ml horseradish peroxidase and 3 units/ml choline oxidase in 50 mM Tris, pH 8, 4.5 mM MgCl2 is added and the incubation continued for 15 minutes at room temperature before reading the absorbance at 555 nm.
row,SMILES,IC50 [µM]
1,"N#C/C(=C\c1cn(Cc2ccc(F)cc2)c2nc(Cl)ccc12)c1ccc(C(=O)O)cc1 [Compound 3-3, (Z)-4-(2-(6-chloro-1-(4-fluorobenzyl)-1H-pyrrolo[2,3-b]pyridin-3-yl)-1-cyanovinyl)benzoic acid]",0.5 to 10

# Same assay, conditions: ATX in concentrated conditioned media from Hep3B cells; choline released from LPC substrate; read-out: IC50
row,SMILES,IC50 [µM]
1,N#C/C(=C\c1nn(Cc2cc(Cl)cc(Cl)c2)c2cc(Cl)ccc12)c1ccc(C(=O)O)cc1 [Compound 1-3],0.5 to 10
2,"N#C/C(=C\c1nn(Cc2ccc(F)cc2)c2cc(Cl)ccc12)c1ccc(C(=O)O)cc1 [Compound 1-1, (Z)-4-(2-(6-chloro-1-(4-fluorobenzyl)-1H-indazol-3-yl)-1-cyanovinyl)benzoic acid]",< 0.5
3,"N#C/C(=C\c1nn(Cc2cc(C(F)(F)F)cc(C(F)(F)F)c2)c2cc(Cl)ccc12)c1ccc(C(=O)O)cc1 [Compound 1-4, (Z)-4-(2-(1-(3,5-bis(trifluoromethyl)benzyl)-6-chloro-1H-indazol-3-yl)-1-cyanovinyl)benzoic acid]",0.5 to 10
4,"Cn1ccc(Cn2nc(/C=C(\C#N)c3ccc(C(=O)O)cc3)c3ccc(Cl)cc32)n1 [Compound 1-5, (Z)-4-(2-(6-chloro-1-((1-methyl-1H-pyrazol-3-yl)methyl)-1H-indazol-3-yl)-1-cyanovinyl)benzoic acid]",> 10
5,"N#C/C(=C\c1nn(Cc2ccc(Cl)nc2)c2cc(Cl)ccc12)c1ccc(C(=O)O)cc1 [Compound 1-6, (Z)-4-(2-(6-chloro-1-((6-chloropyridin-3-yl)methyl)-1H-indazol-3-yl)-1-cyanovinyl)benzoic acid]",< 0.5
6,"O=C(O)c1ccc(/C=C/c2nn(Cc3ccc(F)cc3)c3cc(Cl)ccc23)cc1 [Compound 1-8, (E)-4-(2-(6-chloro-1-(4-fluorobenzyl)-1H-indazol-3-yl)vinyl)benzoic acid]",0.5 to 10
7,"COc1ccc(Cn2nc(/C=C(\C#N)c3ccc(C(=O)O)cc3)c3ccc(Cl)cc32)cn1 [Compound 1-7, (Z)-4-(2-(6-chloro-1-((6-methoxypyridin-3-yl)methyl)-1H-indazol-3-yl)-1-cyanovinyl)benzoic acid]",< 0.5
8,"N#C/C(=C\c1nn(Cc2ccccc2)c2cc(Cl)ccc12)c1ccc(C(=O)O)cc1 [Compound 1-2, (Z)-4-(2-(1-benzyl-6-chloro-1H-indazol-3-yl)-1-cyanovinyl)benzoic acid]",< 0.5

# Next, values leading:
row,IC50 [µM],SMILES
1,< 0.5,"N#C/C(=C\c1cn(Cc2ccc(F)cc2)c2ncccc12)c1ccc(C(=O)O)cc1 [Compound 3-1, (Z)-4-(1-cyano-2-(1-(4-fluorobenzyl)-1H-pyrrolo[2,3-b]pyridin-3-yl)vinyl)benzoic acid]"
2,> 10,"CCCn1cc(-n2c(C)c(/C=C(\C#N)c3ccc(C(=O)O)cc3)c3ccsc32)cn1 [Compound 5-1, (Z)-4-(1-cyano-2-(5-methyl-6-(1-propyl-1H-pyrazol-4-yl)-6H-thieno[2,3-b]pyrrol-4-yl)vinyl)benzoic acid]"
3,< 0.5,"COc1ccc(Cn2cc(/C=C(\C#N)c3ccc(C(=O)O)cc3)c3ccc(Cl)nc32)cn1 [Compound 3-4, (Z)-4-(2-(6-chloro-1-((6-methoxypyridin-3-yl)methyl)-1H-pyrrolo[2,3-b]pyridin-3-yl)-1-cyanovinyl)benzoic acid]"
4,0.5 to 10,"COc1ccc(Cn2cc(/C=C(\C#N)c3ccc(C(=O)O)cc3)c3cccnc32)cn1 [Compound 3-2, (Z)-4-(1-cyano-2-(1-((6-methoxypyridin-3-yl)methyl)-1H-pyrrolo[2,3-b]pyridin-3-yl)vinyl)benzoic acid]"

# Reference: patent US9951026B2, “Heterocyclic vinyl autotaxin inhibitor compounds” (PharmAkea, Inc., priority 2013, dated 2018)
